# Laboratory results taken from patent US20080234262A1 (Wyeth, priority 2007, published 2008).
# Tests used:
# [1] = target: PI3K (Homo sapiens, UniProt P42336); experiment: Fluorescence polarization assay for PI3K; format: biochemical; details: PI3Kα; read-out: PI3Kα IC50;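 further: PI3K kinase reaction on PIP2 with ATP, 30-60 min, product sensed by GST-GRP with red probe in fluorescence polarization (mP), controls without enzyme and at zero time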
# [2] = tested on: prostate line LNCap; experiment: In vitro cell culture growth assay (MTS), LNCap; format: cell-based, human; details: Homo sapiens, LNCaP, 72 h, LNCap cells, three days after drug treatment;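 further: viable cell density read by absorbance at 490 nm, growth expressed as percent of vehicle-treated cells on the same plate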
# [3] = tested on: breast line MDA468; experiment: In vitro cell culture growth assay (MTS), MDA468; format: cell-based, human; details: Homo sapiens, 72 h, MDA468 cells, three days after drug treatment
# Method in brief: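 Growth measured as percent of same-plate vehicle control by MTS metabolic dye conversion (A490). Breast MDA468 and prostate LNCap cells, plated a day ahead, were exposed to compounds for 3 days.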
# Chain of PI3K (P42336 whole entry): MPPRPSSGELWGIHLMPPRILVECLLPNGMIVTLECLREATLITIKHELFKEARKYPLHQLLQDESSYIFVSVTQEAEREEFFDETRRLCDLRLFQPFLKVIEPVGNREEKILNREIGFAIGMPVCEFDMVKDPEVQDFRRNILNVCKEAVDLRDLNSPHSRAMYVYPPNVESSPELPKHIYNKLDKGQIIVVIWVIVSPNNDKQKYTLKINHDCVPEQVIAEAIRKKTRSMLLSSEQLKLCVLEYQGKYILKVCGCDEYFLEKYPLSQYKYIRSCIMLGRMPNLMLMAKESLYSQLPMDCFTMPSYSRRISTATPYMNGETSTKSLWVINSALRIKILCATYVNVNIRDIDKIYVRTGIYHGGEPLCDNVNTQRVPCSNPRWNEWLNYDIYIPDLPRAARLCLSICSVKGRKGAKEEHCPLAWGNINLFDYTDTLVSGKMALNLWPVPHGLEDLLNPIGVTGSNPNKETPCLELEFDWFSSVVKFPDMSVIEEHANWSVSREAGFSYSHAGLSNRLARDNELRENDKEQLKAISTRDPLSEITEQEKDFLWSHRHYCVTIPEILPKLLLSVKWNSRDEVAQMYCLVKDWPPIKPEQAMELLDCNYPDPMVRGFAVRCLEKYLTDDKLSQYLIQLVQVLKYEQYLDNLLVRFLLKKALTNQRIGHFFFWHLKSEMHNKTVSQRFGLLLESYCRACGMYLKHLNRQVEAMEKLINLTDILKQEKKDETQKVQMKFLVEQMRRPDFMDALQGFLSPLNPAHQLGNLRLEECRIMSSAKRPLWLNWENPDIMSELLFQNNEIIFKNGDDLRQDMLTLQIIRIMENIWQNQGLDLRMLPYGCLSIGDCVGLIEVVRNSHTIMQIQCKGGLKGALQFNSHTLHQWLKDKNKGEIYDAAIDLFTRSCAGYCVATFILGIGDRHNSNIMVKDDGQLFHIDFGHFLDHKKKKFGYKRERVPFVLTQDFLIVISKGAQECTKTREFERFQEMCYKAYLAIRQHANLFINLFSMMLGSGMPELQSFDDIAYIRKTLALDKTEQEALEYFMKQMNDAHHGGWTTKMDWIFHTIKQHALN
# Chain of PI3K (P27986 whole entry partner): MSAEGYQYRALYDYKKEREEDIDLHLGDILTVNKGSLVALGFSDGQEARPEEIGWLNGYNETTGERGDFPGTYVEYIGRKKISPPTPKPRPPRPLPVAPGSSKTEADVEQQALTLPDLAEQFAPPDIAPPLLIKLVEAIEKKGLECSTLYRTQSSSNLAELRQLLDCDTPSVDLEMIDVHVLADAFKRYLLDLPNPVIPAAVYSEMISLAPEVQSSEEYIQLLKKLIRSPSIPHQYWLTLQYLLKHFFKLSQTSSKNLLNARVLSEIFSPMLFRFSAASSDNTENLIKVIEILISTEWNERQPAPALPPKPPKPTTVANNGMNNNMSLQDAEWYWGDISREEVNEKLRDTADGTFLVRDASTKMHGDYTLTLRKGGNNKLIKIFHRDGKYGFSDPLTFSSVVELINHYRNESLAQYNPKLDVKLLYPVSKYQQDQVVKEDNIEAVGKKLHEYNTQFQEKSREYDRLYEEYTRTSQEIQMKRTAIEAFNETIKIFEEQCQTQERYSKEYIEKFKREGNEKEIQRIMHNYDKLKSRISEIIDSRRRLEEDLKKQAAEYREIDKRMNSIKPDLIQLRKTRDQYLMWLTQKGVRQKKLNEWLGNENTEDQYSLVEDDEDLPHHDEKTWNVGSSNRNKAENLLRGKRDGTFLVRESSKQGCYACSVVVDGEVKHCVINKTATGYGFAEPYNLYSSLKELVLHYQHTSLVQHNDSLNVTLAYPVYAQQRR
SMILES,IC50 [1] [nM],IC50 [2] [nM],IC50 [3] [nM]
"NNC(=O)Nc1ccc(-c2nc(N3CCOCC3)c3cnn(-c4ccccc4)c3n2)cc1 [Example 292, N-[4-(4-morpholin-4-yl-1-phenyl-1H-pyrazolo[3,4-d]pyrimidin-6-yl)phenyl]hydrazinecarboxamide]",171,5200,8000
"O=C(NO)Nc1ccc(-c2nc(N3CCOCC3)c3cnn(-c4ccccc4)c3n2)cc1 [Example 293, 1-hydroxy-3-[4-(4-morpholin-4-yl-1-phenyl-1H-pyrazolo[3,4-d]pyrimidin-6-yl)phenyl]urea]",211,480,1100
"O=C(NCCF)Nc1ccc(-c2nc(N3CCOCC3)c3cnn(-c4ccccc4)c3n2)cc1 [Example 294, 1-(2-fluoroethyl)-3-[4-(4-morpholin-4-yl-1-phenyl-1H-pyrazolo[3,4-d]pyrimidin-6-yl)phenyl]urea]",251,190,900
"NC(=O)Nc1ccc(-c2nc(N3CCOCC3)c3cnn(C4CCN(C(=O)c5cccnc5)CC4)c3n2)cc1 [Example 301, 1-(4-{4-morpholin-4-yl-1-[1-(pyridin-3-ylcarbonyl)piperidin-4-yl]-1H-pyrazolo[3,4-d]pyrimidin-6-yl}phenyl)urea]",179,3000,1800
"O=C(NCCF)Nc1ccc(-c2nc(N3CCOCC3)c3cnn(C4CCN(C(=O)c5cccnc5)CC4)c3n2)cc1 [Example 303, 1-(2-fluoroethyl)-3-(4-{4-morpholin-4-yl-1-[1-(pyridin-3-ylcarbonyl)piperidin-4-yl]-1H-pyrazolo[3,4-d]pyrimidin-6-yl}phenyl)urea]",541,630,500
"O=C(NCCO)Nc1ccc(-c2nc(N3CCOCC3)c3cnn(C4CCN(C(=O)c5cccnc5)CC4)c3n2)cc1 [Example 304, 1-(2-hydroxyethyl)-3-(4-{4-morpholin-4-yl-1-[1-(pyridin-3-ylcarbonyl)piperidin-4-yl]-1H-pyrazolo[3,4-d]pyrimidin-6-yl}phenyl)urea]",220,7500,9000
"O=C(NO)Nc1ccc(-c2nc(N3CCOCC3)c3cnn(C4CCN(C(=O)c5cccnc5)CC4)c3n2)cc1 [Example 305, 1-hydroxy-3-(4-{4-morpholin-4-yl-1-[1-(pyridin-3-ylcarbonyl)piperidin-4-yl]-1H-pyrazolo[3,4-d]pyrimidin-6-yl}phenyl)urea]",604,10100,7200
"NNC(=O)Nc1ccc(-c2nc(N3CCOCC3)c3cnn(C4CCN(C(=O)c5cccnc5)CC4)c3n2)cc1 [Example 306, N-(4-{4-morpholin-4-yl-1-[1-(pyridin-3-ylcarbonyl)piperidin-4-yl]-1H-pyrazolo[3,4-d]pyrimidin-6-yl}phenyl)hydrazinecarboxamide]",398,10000,14000
"CCNC(=O)Nc1ccc(-c2nc(N3CCOCC3)c3cnn(C4CCN(C(=O)c5cccnc5)CC4)c3n2)cc1 [Example 307, 1-ethyl-3-(4-{4-morpholin-4-yl-1-[1-(pyridin-3-ylcarbonyl)piperidin-4-yl]-1H-pyrazolo[3,4-d]pyrimidin-6-yl}phenyl)urea]",434,60,200
"CONC(=O)Nc1ccc(-c2nc(N3CCOCC3)c3cnn(C4CCN(C(=O)c5cccnc5)CC4)c3n2)cc1 [Example 308, 1-methoxy-3-(4-{4-morpholin-4-yl-1-[1-(pyridin-3-ylcarbonyl)piperidin-4-yl]-1H-pyrazolo[3,4-d]pyrimidin-6-yl}phenyl)urea]",1810,800,3000
"CNC(=O)Nc1ccc(-c2nc(N3CCOCC3)c3cnn(C4CCC5(CC4)OCCO5)c3n2)cc1 [Example 321, 1-{4-[1-(1,4-dioxaspiro[4.5]dec-8-yl)-4-morpholin-4-yl-1H-pyrazolo[3,4-d]pyrimidin-6-yl]phenyl}-3-methylurea]",74,27,100
"CNC(=O)Nc1ccc(-c2nc(N3CCOCC3)c3cnn(C4CCC(=O)CC4)c3n2)cc1 [Example 322, 1-methyl-3-{4-[4-morpholin-4-yl-1-(4-oxocyclohexyl)-1H-pyrazolo[3,4-d]pyrimidin-6-yl]phenyl}urea]",56,27,200
"CNC(=O)Nc1ccc(-c2nc(N3CCOCC3)c3cnn(C4CCC(O)CC4)c3n2)cc1 (stereo not drawn) [Example 323, 1-{4-[1-(4-hydroxycyclohexyl)-4-morpholin-4-yl-1H-pyrazolo[3,4-d]pyrimidin-6-yl]phenyl}-3-methylurea]",39,54,200
"CNC(=O)Nc1ccc(-c2nc(N3CCOCC3)c3cnn(C4CCN(C(=O)c5cccnc5C)CC4)c3n2)cc1 [Example 329, 1-methyl-3-[4-(1-{1-[(2-methylpyridin-3-yl)carbonyl]piperidin-4-yl}-4-morpholin-4-yl-1H-pyrazolo[3,4-d]pyrimidin-6-yl)phenyl]urea]",216,250,900
"CNC(=O)Nc1ccc(-c2nc(N3CCOCC3)c3cnn(C4CCN(Cc5ccc(OC)nc5)CC4)c3n2)cc1 [Example 330, 1-[4-(1-{1-[(6-methoxypyridin-3-yl)methyl]piperidin-4-yl}-4-morpholin-4-yl-1H-pyrazolo[3,4-d]pyrimidin-6-yl)phenyl]-3-methylurea]",33,27,700
"CNC(=O)Nc1ccc(-c2nc(N3CCOCC3)c3cnn(C4CCN(CC(N)=O)CC4)c3n2)cc1 [Example 332, 2-[4-(6-{4-[(methylcarbamoyl)amino]phenyl}-4-morpholin-4-yl-1H-pyrazolo[3,4-d]pyrimidin-1-yl)piperidin-1-yl]acetamide]",66,600,1000
"CNC(=O)Nc1ccc(-c2nc(N3CCOCC3)c3cnn(C4CCN(C(=O)N5CCN(C)CC5)CC4)c3n2)cc1 [Example 334, 1-methyl-3-[4-(1-{1-[(4-methylpiperazin-1-yl)carbonyl]piperidin-4-yl}-4-morpholin-4-yl-1H-pyrazolo[3,4-d]pyrimidin-6-yl)phenyl]urea]",71,400,700
"CNC(=O)Nc1ccc(-c2nc(N3CCOCC3)c3cnn(C4CCN(C(=O)Nc5cccnc5)CC4)c3n2)cc1 [Example 335, 4-(6-{4-[(methylcarbamoyl)amino]phenyl}-4-morpholin-4-yl-1H-pyrazolo[3,4-d]pyrimidin-1-yl)-N-pyridin-3-ylpiperidine-1-carboxamide]",30,3000,2500
"CNC(=O)Nc1ccc(-c2nc(N3CCOCC3)c3cnn(C4CCNCC4)c3n2)cc1 [Example 338, 1-methyl-3-[4-(4-morpholin-4-yl-1-piperidin-4-yl-1H-pyrazolo[3,4-d]pyrimidin-6-yl)phenyl]urea]",23,500,1300

# Continued, in another order:
IC50 [1] [nM],IC50 [2] [nM],SMILES,IC50 [3] [nM]
590,320,"O=C(NCC(F)(F)F)Nc1ccc(-c2nc(N3CCOCC3)c3cnn(C4CCN(Cc5ccccc5)CC4)c3n2)cc1 [Example 289, 1-{4-[1-(1-benzylpiperidin-4-yl)-4-morpholin-4-yl-1H-pyrazolo[3,4-d]pyrimidin-6-yl]phenyl}-3-(2,2,2-trifluoroethyl)urea]",1300
13,200,"CNCCNC(=O)Nc1ccc(-c2nc(N3CCOCC3)c3cnn(C4CCN(Cc5ccccc5)CC4)c3n2)cc1 [Example 300, 1-{4-[1-(1-benzylpiperidin-4-yl)-4-morpholin-4-yl-1H-pyrazolo[3,4-d]pyrimidin-6-yl]phenyl}-3-[2-(methylamino)ethyl]urea]",200
155,900,"NNC(=O)Nc1ccc(-c2nc(N3CCOCC3)c3cnn(C4CCN(Cc5ccccc5)CC4)c3n2)cc1 [Example 309, N-{4-[1-(1-benzylpiperidin-4-yl)-4-morpholin-4-yl-1H-pyrazolo[3,4-d]pyrimidin-6-yl]phenyl}hydrazinecarboxamide]",7500
82,200,"NC(=O)Nc1ccc(-c2nc(N3CCOCC3)c3cnn(C4CCN(Cc5cccnc5)CC4)c3n2)cc1 [Example 313, 1-(4-{4-morpholin-4-yl-1-[1-(pyridin-3-ylmethyl)piperidin-4-yl]-1H-pyrazolo[3,4-d]pyrimidin-6-yl}phenyl)urea]",200
163,500,"O=C(NCCO)Nc1ccc(-c2nc(N3CCOCC3)c3cnn(C4CCN(Cc5cccnc5)CC4)c3n2)cc1 [Example 316, 1-(2-hydroxyethyl)-3-(4-{4-morpholin-4-yl-1-[1-(pyridin-3-ylmethyl)piperidin-4-yl]-1H-pyrazolo[3,4-d]pyrimidin-6-yl}phenyl)urea]",600
65,27,"CNC(=O)Nc1ccc(-c2nc(N3CCOCC3)c3cnn(C4CCN(Cc5ccccn5)CC4)c3n2)cc1 [Example 331, 1-methyl-3-(4-{4-morpholin-4-yl-1-[1-(pyridin-2-ylmethyl)piperidin-4-yl]-1H-pyrazolo[3,4-d]pyrimidin-6-yl}phenyl)urea]",500
23,27,"CNC(=O)Nc1ccc(-c2nc(N3CCOCC3)c3cnn(C4CCN(CC(=O)c5ccccc5)CC4)c3n2)cc1 [Example 333, 1-methyl-3-(4-{4-morpholin-4-yl-1-[1-(2-oxo-2-phenylethyl)piperidin-4-yl]-1H-pyrazolo[3,4-d]pyrimidin-6-yl}phenyl)urea]",200
11,31,"O=C(Nc1ccccc1)Nc1ccc(-c2nc(N3CCOCC3)c3cnn(C4CCN(Cc5cccnc5)CC4)c3n2)cc1 [Example 339, 1-(4-{4-morpholin-4-yl-1-[1-(pyridin-3-ylmethyl)piperidin-4-yl]-1H-pyrazolo[3,4-d]pyrimidin-6-yl}phenyl)-3-phenylurea]",200
